Source: patent publication US9000155B2, “Cyclic triazo sodium channel blockers” (University of Greenwich, priority 2009, dated 2015)
pIC50: −log10 of the molar value. Where “and” joins values, the source holds several entries; their conditions need not be identical. Equal values may be shown once. Where a name gives a salt, the structure may show the parent alone. Read-outs that look alike come from different tables or passages of the source.

Experiments:
hERG = biological target: T1, hERG (Homo sapiens, UniProt Q12809); experiment: Inhibition of binding of [3H]astemizole to HEK-293 cells expressing hERG; settings: for inhibition at 10 µM: human, HEK-293 cells expressing human recombinant hERG, probe [3H]astemizole
T1 construct: host or cells: HEK-293
T1 sequence (Q12809 whole entry): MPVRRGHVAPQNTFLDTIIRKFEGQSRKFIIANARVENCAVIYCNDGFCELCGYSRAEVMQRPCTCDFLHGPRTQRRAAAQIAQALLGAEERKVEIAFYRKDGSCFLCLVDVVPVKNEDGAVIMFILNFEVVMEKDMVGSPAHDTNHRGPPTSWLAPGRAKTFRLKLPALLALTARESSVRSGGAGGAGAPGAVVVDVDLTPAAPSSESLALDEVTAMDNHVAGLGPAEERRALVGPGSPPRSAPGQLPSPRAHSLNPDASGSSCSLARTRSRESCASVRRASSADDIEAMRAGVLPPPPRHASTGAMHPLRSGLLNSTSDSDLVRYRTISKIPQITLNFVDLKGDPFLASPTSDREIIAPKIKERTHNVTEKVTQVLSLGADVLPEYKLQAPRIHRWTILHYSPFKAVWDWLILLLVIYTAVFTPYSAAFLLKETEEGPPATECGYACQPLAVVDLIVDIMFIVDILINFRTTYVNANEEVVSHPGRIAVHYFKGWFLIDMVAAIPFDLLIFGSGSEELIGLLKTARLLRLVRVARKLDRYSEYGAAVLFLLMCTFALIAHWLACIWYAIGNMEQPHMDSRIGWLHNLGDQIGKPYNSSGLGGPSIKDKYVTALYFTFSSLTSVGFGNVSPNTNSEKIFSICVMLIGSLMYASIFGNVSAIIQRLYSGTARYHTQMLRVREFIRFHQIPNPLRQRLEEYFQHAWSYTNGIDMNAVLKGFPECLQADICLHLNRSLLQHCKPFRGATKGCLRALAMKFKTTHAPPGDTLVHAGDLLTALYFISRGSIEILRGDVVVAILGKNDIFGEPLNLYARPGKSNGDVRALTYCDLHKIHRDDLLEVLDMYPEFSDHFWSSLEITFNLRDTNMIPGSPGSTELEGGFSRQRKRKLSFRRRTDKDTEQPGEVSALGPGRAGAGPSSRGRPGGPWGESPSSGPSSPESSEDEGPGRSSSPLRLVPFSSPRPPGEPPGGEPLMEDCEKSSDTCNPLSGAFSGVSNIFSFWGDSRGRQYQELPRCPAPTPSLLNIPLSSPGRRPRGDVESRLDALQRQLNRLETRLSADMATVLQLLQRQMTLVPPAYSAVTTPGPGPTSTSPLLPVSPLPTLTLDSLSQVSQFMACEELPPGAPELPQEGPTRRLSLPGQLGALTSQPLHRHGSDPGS
Method: Another common side-effect marker is inhibition of human Ether-a-go-go Related Gene potassium (hERG) potassium channel (Inward rectifying, IKr) activity which can be fatal due to heart failure brought about by development of long QT syndrome. A useful preliminary screen to assess potential to affect this channel is assessed by measurement of inhibition of the binding of [3H]astemizole to cell membranes expressing hERG. Selected compounds are tested for this activity by measurement of inhibition @ 10 μM.
Compounds were sent to MDS Pharma for measurement of their inhibition @ 10 μM concentration of the binding of [^3H]astemizole to HEK-293 cells expressing human recombinant hERG.

[1] = tested on: maximal electroshock (MES); experiment: Mouse MES model of epilepsy; type: in vivo; settings: 72 mg/Kg (free base) po
Method: In mouse model of epilepsy (MES), compounds CEN-079 and CEN-216 were dosed orally (100 and 72 mg/kg free base respectively) @ 1 h, 6 h and 24 h prior to ‘shock).

Microsome stability = type: in vitro ADME, human; settings: 1 μM
Method: Compounds were sent to BioFocus for measurement of their stability @ 1 μM concentration following incubation with rat liver microsomes for 40 minutes @ 37°.

Sodium Channel, Site 2 = experiment: Inhibition of binding of [3H]BTX-B to Wistar rat brain; settings: for IC50: extrapolated, read-out: Nach ([3H]BTX-B) (extrapolated IC50 μM); for pIC50: read-out: [3H]BTX-B binding Extrapolated IC50
[2] = tested on: maximal electroshock-induced tonic convulsions; experiment: Rat MES (Maximal ElectroShock) anticonvulsant test; type: in vivo; settings: for MES Results (% protection): n = 5 rats; for ED50: Rattus norvegicus, po
Method: Male Wistar rats provided by BioLasco Taiwan (under Charles River Laboratories Technology Licensee) were used. Space allocation for 5 animals was 45×23×21 cm. Animals were housed in animal cages and maintained in a controlled temperature (21-23° C.) and humidity (50%-70%) environment with 12 hours light/dark cycles for at least three days in MDS Pharma Services—Taiwan Laboratory prior to use. Free access to standard lab chow for rats [MF-18 (Oriental Yeast Co., Ltd. Japan)] and reverse osmosis (RO) water were granted ad libitum. All aspects of this work including housing, experimentation and disposal of animals were performed in general accordance with the Guide for the Care and Use of Laboratory Animals (National Academy Press, Washington, D.C., 1996).
Test compounds were suspended/dissolved in 2% Tween 80 and dosed orally at a dose volume of 10 ml/Kg to groups of 5 Wistar male rats weighing 180+/−20 g, one hour before maximal electroshock (MES, 60 Hz sine wave, 150 mA, 200 msec duration) was applied through corneal electrodes. Appearance of maximal electroshock-induced tonic convulsions (MES) was determined for each animal. 50 percent or more (50%) inhibition of tonic convulsions by test substance indicates significant anticonvulsant activity.
Test substances (CEN-216, CEN-145, CEN-148, CEN-152 and CEN-154) at 14, 42 or 100 mg/kg were administered orally to groups of 5 Wistar derived male rats weighing 180±20 g.
In rat model of epilepsy (Maximal ElectroShock—MES), in which compounds were dosed orally one hour prior to ‘shock’, the ED50 (effective dose to protect 50% of rats from limb extension etc.) for CEN-216 is approx 9 mg/kg free base.

L-Type Calcium Channels = experiment: L-type calcium channel binding ([3H]nitrendipine, rat cerebral cortex membranes)
Excerpt: Compounds were sent to MDS Pharma for measurement of their inhibition @ […] of the binding of [^3H]nitrendipine to rat cerebral cortex membranes.

sodium channel = type: biochemical, rat; settings: read-out: [14C]guanidine flux Mean IC50
Excerpt: The screening strategy is designed to select compounds with appropriate sodium channel blocking activity and low side effect liability. To this end all compounds are processed through the primary sodium channel assay (veratrine-evoked uptake of [^14C]guanidine into rat forebrain synaptosomes) and IC50 values computed from generated concentration-effect curves.
Following killing of animals by stunning and decapitation, the forebrain (whole brain less cerebellum/medulla) was rapidly dissected and transferred to a weighed tube containing ice-cold 0.25M sucrose.
Synaptosomes (heavy and light mitochondrial fraction containing synaptosomes) were prepared by transferring the forebrain (of known wet weight) to a glass Potter vessel to which 9 volumes ice-cold 0.25M sucrose had been added and homogenising, using a teflon pestle, by 8 ‘up and down strokes’ of a Braun Potter S motor driven homogeniser set to 900 rpm. The resulting homogenate was centrifuged at 1036×g at 4° for 10 min and the supernatant collected. The remaining pellet was resuspended, as above, in fresh ice-cold 0.25M sucrose and the centrifugation step repeated. The supernatant fractions were pooled and centrifuged at 40,000×g (average) at 4° for 15 min and the resulting pellet resuspended in the appropriate assay buffer at a concentration of 20-25 mg wet weight per ml appropriate assay buffer. […]

[3] = tested on: 0.4 mm slices of rat hippocampus; type: cell-based
[4] = extrapolated, read-out: hERG ([3H]astemizole) (extrapolated IC50 μM)
[5] = hERG IC50 (μM) (extrapolated from 10 μM inh'n), extrapolated from 10 μM inhibition, slope assumed 1.0
[6] = 1 h, read-out: Rat MES ED50 (very approx, from single 100 mg/kg dose), free base, one hour prior to shock

N=c1nc(N)c(-c2cccc(Cl)c2Cl)nn1CC(Cl)(Cl)Cl [CEN-216, 5(3)-Amino-6-(2,3-dichlorophenyl)-2,3(2,5)-dihydro-3(5)-imino-2-(2,2,2-trichloroethyl)-1,2,4-triazine trifluoromethanesulphonate]
IC50 (hERG; [4]): 50 µM | IC50 (hERG; [5]): 73.3 µM | inhibition at 10 µM (hERG): 12% | duration of action following po dose in mouse [1]: long duration of action | Mouse MES % protection ([1]; 1 h prior to shock): 100% | Mouse MES % protection ([1]; 6 h prior to shock): 100% | Mouse MES % protection ([1]; 24 h prior to shock): 100% | Microsome stability (human) % metabolized (40 min incubation 37°) (Microsome stability): 0% | [3H]BTX-B binding % inhibition (@ 10 μM) (Sodium Channel, Site 2): 42% | IC50 (Sodium Channel, Site 2): 20 µM | pIC50 (Sodium Channel, Site 2): 4.86 | MES Results (% protection) ([2]; 1 mg/kg po): 0% | MES Results (% protection) ([2]; 3 mg/kg po): 0% | Rat MES (anticonvulsant in vivo) % protection ([2]; 10 mg/Kg (free base) po): 80% | MES Results (% protection) ([2]; 10 mg/kg po): 80% | MES Results (% protection) ([2]; 30 mg/kg po): 100% | MES Results (% protection) ([2]; 100 mg/kg po): 100% | ED50 ([2]; 1 h, free base, dosed orally one hour prior to shock, read-out: Rat MES ED50 (effective dose to protect 50% of rats)): ~9 mg/kg | ED50 ([2]; read-out: Rat MES ED50): 9 mg/kg | L-type Ca2+ % inhibition @ 10 μM (L-Type Calcium Channels; 10 μM): 27% | pIC50 (L-Type Calcium Channels; extrapolated, read-out: extrapolated IC50 in L-type Calcium (phenylalkylamine site) binding assay): 4.57 | IC50 (L-Type Calcium Channels; read-out: L-type Ca2+ IC50 (μM) (extrapolated from 10 μM inh'n), extrapolated from 10 μM inhibition, slope assumed 1.0): 27 µM

Nc1nnc(-c2cccc(Cl)c2Cl)c(N)n1 [CEN-1, 3,5-Diamino-6-(2,3-dichlorophenyl)-1,2,4-triazine, reference compound]
Microsome stability (human) % metabolized (40 min incubation 37°) (Microsome stability): 20% | pIC50 (sodium channel): 3.66 | MES Results (% protection) ([2]; 3 mg/kg po): 60% | MES Results (% protection) ([2]; 10 mg/kg po): 100% | MES Results (% protection) ([2]; 25 mg/kg po): 100%

NC1=N[C@H](O)[C@H]2[C@H]3O[C@]4(O)O[C@@H]([C@@H](O)[C@@]2(N1)[C@@H]4O)[C@]3(O)CO [TTX, tetrodotoxin]
% protection (v 1 μM TTX) (mean ± sem) [3]: 100%

O=C1NC(=O)C(c2ccccc2)(c2ccccc2)N1 [DiPhenylHydantoin, Diphenylhydantoin sodium salt, reference compound]
MES Results (% protection) ([2]; 100 mg/kg po): 80% | % protection (v 1 μM TTX) (mean ± sem) [3]: 48%

N=c1nc(N)c(-c2cccc(Cl)c2Cl)nn1CC(F)(F)C(F)F [CEN-218]
IC50 (hERG; [4]): 40 µM | IC50 (hERG; [5]): 40 µM | inhibition at 10 µM (hERG): 20% | [3H]BTX-B binding % inhibition (@ 10 μM) (Sodium Channel, Site 2): 108% | IC50 (Sodium Channel, Site 2): < 0.5 µM | pIC50 (Sodium Channel, Site 2): > 6.30 | Rat MES (anticonvulsant in vivo) % protection ([2]; 100 mg/Kg (free base) po): 40 @ 100% | Rat MES (anticonvulsant in vivo) % protection ([2]; 100 mg/Kg (free base) po, listed as 218): 40% | MES Results (% protection) ([2]; 100 mg/kg po): 40% | ED50 [2, 6]: ~120 mg/kg

N=c1nc(N)c(-c2cc(Cl)cc(Cl)c2Cl)nn1CC(Cl)(Cl)Cl [CEN-248]
[3H]BTX-B binding % inhibition (@ 10 μM) (Sodium Channel, Site 2): 27% | IC50 (Sodium Channel, Site 2): 27 µM | pIC50 (Sodium Channel, Site 2): 4.57 | Rat MES (anticonvulsant in vivo) % protection ([2]; 30 mg/Kg (free base) po): 100% protection @ 30 | MES Results (% protection) ([2]; 30 mg/kg po): 100%

N=c1nc(N)c(-c2cccc(Cl)c2Cl)nn1CC(F)(F)C(F)(F)F [CEN-217]
IC50 (hERG; [4]): 26 µM | IC50 (hERG; [5]): 25.7 µM | inhibition at 10 µM (hERG): 28% | [3H]BTX-B binding % inhibition (@ 10 μM) (Sodium Channel, Site 2): 105% | IC50 (Sodium Channel, Site 2): < 0.5 µM | pIC50 (Sodium Channel, Site 2): > 6.30 | Rat MES (anticonvulsant in vivo) % protection ([2]; 100 mg/Kg (free base) po): 60% and 60 @ 100% | MES Results (% protection) ([2]; 100 mg/kg po): 60% | ED50 [2, 6]: ~80 mg/kg
